Assay results as given in US9650664B2, “Use of photocleavable compounds” (FEMTONICS KFT, priority 2011, dated 2017).

How the values were obtained:
[1] = test system: hippocampal pyramide cell; assay: two-photon stimulation of a hippocampal pyramide cell (Example 20); format: cell-based, Wistar rats; conditions: for Calcium tranziens by two-photon stimulation / somatically recorded EPSP by two-photon stimulation: 2.5 mM, 740 nm, with L-glutamic acid dehydrogenase and NADP; for toxicity: pyramid cell response to 500 ms -100, 0 and 125 pA current injection, waveform after stimulation
Experimental: (§1) Acute hippocampus slices were prepared from 16-20 day old Wistar rats using isoflurane anaesthesia followed by swift decapitation. The process was in accordance with the Hungarian Act of Animal Care and Experimentation (1998. XXVIII, section 243). Coronal (300 μm) brain slices were cut with a vibratome and stored at room temperature in artificial cerebrospinal fluid (ACSF). The composition of the ACSF solution is described above.
(§2) Hippocampus neurons in CA1 stratum radiatum near the border of the stratum lacunosum-moleculare were visualized using 900 nm infrared oblique illumination. Current-clamp recordings were made at 32° C. (MultiClamp 700B, Digidata 1440; Molecular Devices, Sunnyvale, Calif., USA) with glass electrodes (6-9 MΩ) filled with (in mM): 125 K-gluconate, 20 KCl, 10 HEPES, 10 Di-Tris-salt phosphocreatine, 0.3 Na-GTP, 4 Mg-ATP, 10 NaCl, 0.06 Oregon Green BAPTA-1 (OGB-1) and biocytin. Cells with a resting membrane potential more negative than −50 mV were accepted. The recorded cells were classified as nonpyramidal cells according to their electrophysiological properties.
a.) After achieving the whole-cell mode and filling the interneurons with 60 μM OGB-1, the bath solution was exchanged to ACSF containing MNI-Glu-TFA [2.5 mM, Tocris]. Photolysis of MNI-Glu-TFA was performed with 710-830 nm ultrafast, pulsed laser light (Mai Tai HP Deep See, SpectraPhysics, Mountain View, Calif.). The intensity of the uncaging laser beam was controlled with an electro-optical modulator (Model 350-80 LA, Conoptics). Dispersion compensation was set to have maximal response at the depth of uncaging (50-80 μm from surface). The uncaging laser beam was coupled into the imaging optical pathway with a dichroic mirror (custom laser combiner, z750bcm; Chroma Technology Corp, Rockingham, USA). Chromatic aberration was compensated at the focal plane. Radial and axial beam (imaging and photochemical stimulating) alignment errors were held below 100 nm and 300 nm, respectively. Imaging was interleaved with two-photon glutamate uncaging periods, when galvanometers jumped to the maximum 15-25 selected locations (<60 μs jump time) and returned back to the 3D or 2D trajectory thereafter. The position of uncaging sites was finely adjusted according to background images taken. Photolysis of caged glutamate was performed in “clustered” (0.8±0.1 μm distance between inputs) patterns along the dendrite. The single spot uncaging time and laser intensity was set to reproduce uEPSPs and mEPSPs induced by the local application of high osmolar external solution at similar distances from the soma (amplitude of unitary gluEPSP: 0.56±0.09 mV, mEPSPs: 0.58±0.1, uEPSP: 0.55±0.12; exposure time 0.2-0.5 ms/input). Small drifts of the sample (on the order of 0.1-0.2 μm) during the mapping were compensated manually according to regularly taken background images. b.) After the test the perfusion rate was set to 10 ml/min in order to increase the exchange rate of ACSF containing 2.5 mM DNI-Glu*TFA used in the subsequent test. The test was repeated with the same setting of the equipment on the same dendrite section.
The experiment was carried out according to Example 16 with the difference that the cell was filled with calcium sensitive dye (Fluo4) and anatomical dye (ALEXA 594). The experiments were carried out in accordance of the Example 16 with the following differences: after patch clamp the perfusion solution exchange to ACSF containing 2.5 mM iDMPO-DNI-Glutamic acid*2TFA and, or ACSF containing 2.5 mM iDMBO-DNI-Glutamic acid*2TFA, 0.1-0.2 units/ml of L-glutamic acid dehydrogenase and β-Nicotinamide adenine dinucleotide phosphate for the second measurement. The β-Nicotinamide adenine dinucleotide phosphate was kept in a concentration of 50-100 μM during the experiments. All chemical agents (cage compound, dehidrogenase, NADP apply into the bath). During the experiments the evaporation loss of dH2O was continuously refilled. […]

[2] = weight increase on storage (hygroscopicity); format: physicochemical; conditions: 25° C. 50% relative humidity, after 72 hours storage
Experimental: We measured the weight increase of MNI-Glubase and its salts with hydrochloric and trifluoroacetic acid at 25° C. 50% relative humidity.

[3] = spontaneous hydrolysis in ACSF; format: physicochemical
Experimental: […] The solution was sampled at the beginning of the storage and 48 hours later and 4-methoxy-5,7-dinitro-2,3-dihydro-1H-indole was identified from the hydrolysis products by using LCMS method. The compound was identified by the peak of its molecule weight at 240. The sample taken after 48 hours was measured with HPLC equipment. Without correction 46.7% of DNI-Glu*TFA hydrolysed.

[4] = test system: Hippocampus neurons in CA1 stratum radiatum; assay: spontaneous activity of the cell (EPSP frequency), voltage-clamp test; format: cell-based, Wistar rats
Experimental: as §1, §2
A.) Using the test setup of the two-photon excitation process according to Example 16 spontaneous potential changes of the observed cell was measured.
At the beginning of the experiment the control level of potential changes (EPSP) was measured in the absence of DNI-Glu. The measured fluctuation is shown in FIG. 1/A. Following the test DNI-Glu (2.5 mM) was added to the measuring cell. The measured fluctuation is shown in FIG. 1/B. Then 0.1-0.2 unit/ml L-glutamic acid dehydrogenase enzyme and 200 μM NADP (β-Nicotinamide adenine dinucleotide phosphate) were added.
B.) The experiment described in point A.) was repeated 8 times using other cells in each case. The column diagram can be seen on the left side. The average of the control level is shown in column a.). The average of the change due to the caged compound is shown in column b.), while the average level after the addition of the enzyme in column c.).

[5] = test system: Hippocampus neurons in CA1 stratum radiatum; assay: two-photon uncaging on acute hippocampus slices with neutralizing agents (EPSP, Ca2+ transient); format: cell-based, Wistar rats; conditions: 2.5 mM
Experimental: as §1, §2
Two-photon imaging started 15-20 minutes after attaining the whole-cell configuration on a two-photon laser-scanning system (Femto2D, Femtonics Ltd., Budapest) using femtosecond lasers (830-850 nm), Mai Tai HP, SpectraPhysics, Mountain View, Calif.). […]

[6] = according to WO2008/094922; cited from earlier work
hippocampus neurons = conditions: according to WO2008/094922; cited from earlier work

## di-trifluoroacetic acid salt of 2-amino-1-(4′-dimethylamino-isobutoxy-5′,7′-dinitro-2′,3′-dihydro-indol-1′-yl)-5-oxo-pentanoic [iDMBO-DNI-Glu TFA]
[1]
  Calcium tranziens by two-photon stimulation: the same as Panel (D)
  somatically recorded EPSP by two-photon stimulation: the same as Panel (D)
  toxicity: not detected

## COc1ccc([N+](=O)[O-])c2c1CCN2C(=O)CCC(N)C(=O)O (stereo not drawn) [MNI-Glubase, 2-amino-5-(4-methoxy-7-nitro-2,3-dihydro-indol-1-yl)-5-oxo-pentanoic acid]
[2]
  weight increase: 20%

## COc1c([N+](=O)[O-])cc([N+](=O)[O-])c2c1CCN2C(=O)CCC(N)C(=O)O.O=C(O)C(F)(F)F (stereo not drawn) [DNI-Glu*TFA, trifluoroacetic acid salt of 2-amino-5-(4′-methoxy-5′,7′-dinitro-2′,3′-dihydro-indol-1′-yl)-5-oxo-pentanoic acid]
[3]; 0.06 mg/ml in ACSF, stored at 32° C., 48 hours, HPLC, without correction
  hydrolysed: 46.7%
[3]; in 12 ml of ACSF
  speed of the formation of the glutamic acid: 1 µmol/min

## COc1ccc([N+](=O)[O-])c2c1CCN2C(=O)CC[C@H](N)C(=O)O.Cl [MNI-Glu HCl salt]
[2]
  weight increase: 13.6%

## COc1ccc([N+](=O)[O-])c2c1CCN2C(=O)CCC(N)C(=O)O.O=C(O)C(F)(F)F (stereo not drawn) [MNI-Glu trifluoroacetic acid salt]
[2]
  weight increase: 4%

## di-trifluoroacetic acid salt of 2-amino-1-(4′-dimethylamino-isopropoxy-5′,7′-dinitro-2′,3′-dihydro-indol-1′-yl)-5-oxo-pentanoic [iDMPO-DNI-Glu TFA]
[1]
  Calcium tranziens by two-photon stimulation: could evoke
  somatically recorded EPSP by two-photon stimulation: could evoke
  toxicity: not detected

## COc1c([N+](=O)[O-])cc([N+](=O)[O-])c2c1CCN2C(=O)CCC(N)C(=O)O (stereo not drawn) [DNI-Glu, 2-amino-5-(4′-methoxy-5′,7′-dinitro-2′,3′-dihydro-indol-1-yl)-5-oxo-pentanoic acid]
[4]; DNI-Glu 2.5 mM, then L-glutamic acid dehydrogenase and NADP
  frequency of EPSP / spontaneous responses after addition of glutamate dehydrogenase enzyme: restored to the control level
[4]; DNI-Glu 2.5 mM, enzyme = 0.1-0.2 unit/ml L-glutamic acid dehydrogenase and 200 μM NADP, repeated 8 times, other cells
  EPSP Frequency MEAN: 3.87 Hz
[4]; DNI-Glu added, no enzyme
  frequency of EPSP on addition to the perfusion solution: increased
[5]; FIG. 2/A
  excitatory postsynaptic potential (EPSP) resulted by irradiation, compared with MNI-Glu: significantly higher
[5]; FIG. 2/B
  Ca2+ transient signal as a response of the irradiation, compared with MNI-Glu: significantly higher
[6]
  dissolution in physiological solutions: so bad
Hippocampus neurons
  electrical signals in two-photon irradiation experiments: no electrical signals
